Assay results reported in US9655882B2, “Compositions and methods for treatment of neurodegenerative disease” (THE JOHNS HOPKINS UNIVERSITY, priority 2008, dated 2017).
Like-named read-outs stand apart in the source and are kept apart here.

Legend:
[1] = test system: Mouse retinal ganglion cells (RGCs); test: Live-dead assay of cultured mouse RGCs (Cellomics VTI HCS reader), live cell count; settings: approximately 2 days culture, various concentrations, FIG. 4
mouse RGCs [2] = test: RGC neurite growth in purified primary mouse RGC culture (high-content screening); type: cell-based; settings: Example 4, at 100 nM
Experimental: Purified mouse RGCs were grown in Neurobasal, 2% B27, 1% N2 supplement, 0.5 mM glutamine. 2 μM forskolin was present in all the conditions except vehicle control with DMSO (dark bar), for 60 hours. Increasing concentrations of kinase inhibitors were present in the media as indicated. Viability and neurite growth of RGCs were assayed by a combined staining with Calcein AM, Hoechst, and Ethidium Homodimer-1. The images were taken and processed by Cellomics Kineticscan. […] Error bars: S.E.M.
RGC survival and neurite growth were quantitatively measured as average surviving RGCs/field (4 mm^2) (FIG. 2C), total neurite length per RGC (FIG. 2D), average neurite length per RGC (FIG. 2E), and total neurite count per RGC (FIG. 2F). Error bars: S.E.M.
To enhance the assay sensitivity, the culture condition is defined to support a baseline level of RGC viability (20˜60% surviving RGCs after three days in culture) and neurite growth by 2.5 μM forskolin.

mouse RGCs [3] = test: RGC survival in purified primary mouse RGC culture (high-content screening, Calcein AM/Hoechst/Ethidium Homodimer-1); type: cell-based
Experimental: Purified mouse RGCs were grown in Neurobasal, 2% B27, 1% N2 supplement, 0.5 mM glutamine. […] Increasing concentrations of kinase inhibitors were present in the media as indicated. Viability and neurite growth of RGCs were assayed by a combined staining with Calcein AM, Hoechst, and Ethidium Homodimer-1. The images were taken and processed by Cellomics Kineticscan.
RGC survival and neurite growth were quantitatively measured as average surviving RGCs/field (4 mm^2) (FIG. 2C), total neurite length per RGC (FIG. 2D), average neurite length per RGC (FIG. 2E), and total neurite count per RGC (FIG. 2F).

mouse RGCs [4] = type: in vivo; settings: for RGC loss / RGC survival after optic nerve injury: intravitreal injection of 1 μl (2 mM) every three days for nine days
From the text: . Mouse optic nerve crush is a well-established animal model in mimicking the pathological conditions in which the primary injury sites are focal to RGC axons such as in glaucoma, AION, traumatic optic neuropathy, and multiple sclerosis. Specific RGC loss following nerve crush, which largely spares displaced amacrine cells in GCL, is thought to result from incomplete understood mechanism that implicates the blockage of retrograde axonal transport and subsequently impaired neurotrophin signaling, and excitotoxicity etc. In addition, mouse optic nerve crush has been successfully employed as an experimental system to identify the genetic nature controlling RGC susceptibility to axon injury.
During the procedure, the optic nerve was carefully exposed through a post-orbital approach, and crushed with a self-closing forceps for three seconds. […] Since RGCs populate ˜60% cells in rodent GCL, the estimated surviving RGC is ˜57.3%. […]. […]

RGC = RGC survival under Flt3 ligand with or without sunitinib; type: cell-based
activated Caspase-3 = test: Activated Caspase-3 positive (apoptotic) cells in GCL after mouse optic nerve crush; type: in vivo; settings: three days following nerve crush, systemic treatment
From the text: Apoptosis has been identified as the major form of RGC death in many, if not all, degenerative conditions targeting their axons, and in mouse optic nerve.

mouse RGCs [5] = test: Excitotoxicity (glutamate, KA, NMDA, AMPA) in purified mouse RGCs in vitro; type: cell-based; settings: 1 μM sunitinib
Experimental: Neuronal toxicity of excitatory amino acid glutamate and its analogue NMDA is implicated in a number of neurodegenerative conditions that involve RGC, such as glaucoma, optic neuropathies of trauma and other origins, and that affect other CNS structures, such as Alzheimer's disease, Parkinson's disease, Huntington's disease, stroke, and […] (ALS). […] RGC viability was measured and the percentage of RGC loss due to the excitotoxicity was calculated.

FLT3 = molecular target: T1, FLT3 (Homo sapiens, UniProt P36888); settings: cited from earlier work
T1 sequence (P36888 27-993): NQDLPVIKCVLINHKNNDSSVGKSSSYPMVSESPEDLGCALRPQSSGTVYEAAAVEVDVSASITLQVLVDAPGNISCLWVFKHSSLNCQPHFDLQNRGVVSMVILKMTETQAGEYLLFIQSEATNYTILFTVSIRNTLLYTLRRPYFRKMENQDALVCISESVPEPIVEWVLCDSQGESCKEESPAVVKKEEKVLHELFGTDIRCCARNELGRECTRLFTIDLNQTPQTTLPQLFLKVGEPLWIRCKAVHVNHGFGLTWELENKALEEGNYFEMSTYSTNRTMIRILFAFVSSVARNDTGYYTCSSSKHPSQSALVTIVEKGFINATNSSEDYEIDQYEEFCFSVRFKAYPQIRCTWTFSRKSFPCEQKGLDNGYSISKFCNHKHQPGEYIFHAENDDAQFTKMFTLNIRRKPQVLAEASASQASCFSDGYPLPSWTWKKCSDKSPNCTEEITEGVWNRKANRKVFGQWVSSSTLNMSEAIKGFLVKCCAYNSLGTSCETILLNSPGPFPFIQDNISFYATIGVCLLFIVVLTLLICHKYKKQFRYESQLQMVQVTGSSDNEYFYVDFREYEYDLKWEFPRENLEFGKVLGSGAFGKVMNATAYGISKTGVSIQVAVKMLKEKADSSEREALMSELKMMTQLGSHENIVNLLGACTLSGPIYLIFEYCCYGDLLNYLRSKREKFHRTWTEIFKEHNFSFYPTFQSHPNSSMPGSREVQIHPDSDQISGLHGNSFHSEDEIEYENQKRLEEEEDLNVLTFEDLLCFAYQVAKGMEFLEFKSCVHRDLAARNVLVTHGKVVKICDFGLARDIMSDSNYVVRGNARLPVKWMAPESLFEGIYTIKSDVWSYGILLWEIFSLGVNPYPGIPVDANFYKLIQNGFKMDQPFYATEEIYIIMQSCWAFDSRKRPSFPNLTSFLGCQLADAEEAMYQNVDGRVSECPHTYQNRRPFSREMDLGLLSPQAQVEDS

## CN(C)S(=O)(=O)c1ccc2c(c1)/C(=C/c1cc3c([nH]1)CCCC3)C(=O)N2 [SU6656, (3Z)—N,N-dimethyl-2-oxo-3-(4,5,6,7-tetrahydro-1H-indol-2-ylmethylidene)-1H-indole-5-sulfonamide]
[1]
  RGC survival (live cell count): significantly increased RGC survival

## CNC(=O)c1cc(Oc2ccc(NC(=O)Nc3ccc(Cl)c(C(F)(F)F)c3)cc2)ccn1 [Sorafenib]
Mouse RGCs [2]
  RGC neurite growth: stimulate neurite growth as potently as sunitinib (1 μM)
Mouse RGCs [3]; Example 4, clinical protein kinase inhibitors, purified primary mouse RGC culture
  pro-surviving activity on RGCs: lacking strong protective activity to RGC

## O=C(NC1CCOCC1)c1ccc(-c2cc(-c3c[nH]nc3-c3ccccn3)ccn2)cc1 [TGF-beta receptor inhibitor]
Mouse RGCs [4]
  RGC loss / RGC survival after optic nerve injury: capable of reducing RGC loss
Mouse RGCs [4]; listed as drawing 10
  RGC loss / RGC survival after optic nerve injury: increased RGC survival

## CCN(CC)CCNC(=O)c1c(C)[nH]c(/C=C2\C(=O)Nc3ccc(F)cc32)c1C [sunitinib, N-[2-(diethylamino)ethyl]-5-[(Z)-(5-fluoro-1,2-dihydro-2-oxo-3H-indol-3-ylidine)methyl]-2,4-dimethyl-1H-pyrrole-3-carboxamide]
Mouse RGCs [4]; mouse, in vivo
  projected surviving RGCs: 79.2%
Mouse RGCs [4]; mouse, in vivo, 15 mg/kg/day
  appearance of retina: obvious yellow appearance
Mouse RGCs [4]; systemic administration of 5 mg/kg/day for ten days after optic nerve crush
  cells in GCL survived: ~88.5%
RGC; Flt31 at 16 ng/ml, sunitinib present in the media
  antagonism of detrimental effects of Flt31 on RGC: 1.4 fold
Activated Caspase-3
  reduction of number of apoptotic cells in GCL: 38.9%
Mouse RGCs [3]; concentrations higher than 1 μM
  toxicity to RGC in vitro: higher concentrations exhibit toxicity
Mouse RGCs [5]; 100 μM AMPA
  reduction of RGC loss caused by AMPA: 4 folds
Mouse RGCs [5]; 100 μM NMDA
  reduction of RGC loss caused by NMDA: ~10 folds

B1: Flt31: Flt3 ligand, RTK ligand (protein, UniProt P49771 27-235, looked up)
Fms-related tyrosine kinase 3 …: TQDCSFQHSPISSDFAVKIRELSDYLLQDYPVTVASNLQDEELCGGLWRLVLAQRWMERLKTVAGSKMQGLLERVNTEIHFVTKCAFQPPPSCLRFVQTNISRLLQETSEQLVALKPWITRQNFSRCLELQCQPDSSTLPPPWSPRPLEATAPTAPQPPLLLLLLLPVGLLLLAAAWCLHWQRTRRRTPRPGEQVPPVPSPQDLLLVEH
FLT3
  EC50: 4 ng/mL
RGC; Flt31 at 4 ng/ml
  effect on RGC survival: did not appear to affect RGC survival
RGC; Flt31 at 4 ng/ml with sunitinib
  compromise of the pro-surviving activity of sunitinib: 36.6%
RGC; Flt31 at 16 ng/ml
  reduction of RGC survival: 38.3%
